Assay results reported in patent US20250059581A1, “METHOD OF BACTERIAL IDENTIFICATION AND TESTING OF BACTERIUM RESISTANT TO ONE OR MORE ANTIBIOTICS” (Nanyang Technological University, priority 2021, published 2025).

Key:
[1] = tested on: methicillin-resistant S. aureus (MRSA BAA39); assay: Metabolic labelling (D-Ala-N3 / DBCO-AF488) fluorescence under penicillin G treatment; type: cell-based
BAA39 [2] = assay: MILab-ELISA assay; type: cell-based, S. aureus; conditions: penicillin G 16 μg/mL
SA 29213 [3] = assay: MILab-microarray assay; type: cell-based, S. aureus
MRSA BAA38 = assay: MILab-microarray assay; type: cell-based, S. aureus
[4] = tested on: methicillin-susceptible S. aureus (SA 29213); assay: Metabolic labelling (D-Ala-N3 / DBCO-AF488) fluorescence under penicillin G treatment; type: cell-based
S. aureus 29213 = assay: Flow cytometry of metabolic labelling under penicillin G; type: cell-based; conditions: penicillin G 0-128 μg/mL, 3 h, vs untreated controls
BAA39 [5] = assay: MILab-LFA assay; type: cell-based, S. aureus
SA 29213 [6] = assay: MILab-LFA assay; type: cell-based, S. aureus
MRSA BAA39 = assay: Flow cytometry of metabolic labelling under penicillin G; type: cell-based, S. aureus; conditions: penicillin G up to 128 μg/mL, 3 h
[7] = tested on: drug-resistant (BAA40) S. aureus; assay: MILab-based MiChip (SERS) assay; type: cell-based
SA 29213 [8] = assay: MILab-ELISA assay; type: cell-based, S. aureus; conditions: penicillin G 16 μg/mL
[9] = tested on: drug-susceptible (SA 29213) S. aureus; assay: MILab-based MiChip (SERS) assay; type: cell-based
[10] = penicillin G 16 μg/mL, 15 min to 4 hours
[11] = penicillin G 16 μg/mL, 1×10^4 CFU/mL

CC1(C)S[C@@H]2[C@H](NC(=O)Cc3ccccc3)C(=O)N2[C@H]1C(=O)[O-].[Na+] [penicillin G, Penicillin G sodium]
fluorescence intensity of metabolic labelling over incubation time ([1]; penicillin G 16 μg/mL, 0.5 to 5 h, resistant MRSA BAA39): increased quickly with increasing incubation time
metabolic labelling of single bacteria (confocal imaging) ([1]; penicillin G 16 μg/mL, resistant strains): selective labelling
fluorescence intensity of metabolic labelling at varying antibiotic concentration ([1]; penicillin G 2-128 μg/mL, resistant bacteria): much stronger fluorescence intensity
metabolism of bacteria (MILab-ELISA OD 650 nm) (BAA39 [2]): high metabolic activity
microarray fluorescence signal at increasing drug concentration (SA 29213 [3]; Penicillin G 0 to 32 μg/mL, 2 hours, vs untreated controls): considerably reduced signal
microarray fluorescence signal over drug treatment time (SA 29213 [3]; [10]): negligible signal even at 4 hours
microarray fluorescence signal at increasing drug concentration (MRSA BAA38; Penicillin G 0 to 32 μg/mL, 2 hours): maintained significant signal
microarray fluorescence signal over drug treatment time (MRSA BAA38; [10]): increased with increasing penicillin G treatment time
fluorescence intensity of metabolic labelling over incubation time ([4]; penicillin G 16 μg/mL, 0.5 to 5 h, susceptible SA 29213): kept constraint
metabolic labelling of single bacteria (confocal imaging) ([4]; penicillin G 16 μg/mL, susceptible strains): negligible labelling
fluorescence intensity of metabolic labelling at varying antibiotic concentration ([4]; penicillin G 2-128 μg/mL, susceptible bacteria): completely inhibit the metabolic labelling
labelling degree of individual bacteria (flow cytometry) (S. aureus 29213): considerably reduced labelling
MILab-LFA signal over drug treatment (incubation) time (BAA39 [5]; penicillin G, up to 4 hours): showed signal after 30 min
concentration that completely inhibits the bacteria (MILab-LFA test line) (BAA39 [5]; resistant bacteria BAA39): 64 µg/mL
MILab-LFA signal over drug treatment (incubation) time (SA 29213 [6]; penicillin G, up to 4 hours): no signal even after 4 hours
concentration that completely inhibits the bacteria (MILab-LFA test line) (SA 29213 [6]; susceptible bacteria SA 29213): 4 µg/mL
labelling degree of individual bacteria (flow cytometry) (MRSA BAA39): maintained significant labelling
concentration at which weak Raman signals are generated ([7]; dose-dependence test, resistant S. aureus): 128 µg/mL
Raman (SERS) signal over incubation time [7, 11]: distinct Raman signal as short as 30 min
metabolism of bacteria (MILab-ELISA OD 650 nm) (SA 29213 [8]): completely inhibit the metabolism
concentration at which weak Raman signals are generated ([9]; dose-dependence test, susceptible S. aureus): 8 µg/mL
Raman (SERS) signal over incubation time [9, 11]: negligible signals all the time
